Laboratory results from US12209081B2 (Katholieke Universiteit Leuven, priority 2020, dated 2025).

Molecular target: mouse TRPM3α2 (mTRPM3) ion channel (Mus musculus (Mouse), UniProt J9SQF3)
Test: TRPM3 ion channel driven Ca2+ uptake, Fluo-4 AM assay, mTRPM3alpha2 overexpressing flip-in HEK293 cells stimulated with pregnenolone sulfate
Assay type: cell-based
Method in brief: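 Flip-in HEK293 cells loaded with Fluo-4 AM were added to plates holding compound plus 50 μM pregnenolone sulfate in Ca2+-containing Krebs buffer. Fluorescence (ex 485/em 535 nm) read directly after cell addition; % inhibition relative to PS-stimulated vehicle and positive-control inhibitor.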

[1] = PS (50 μM) stimulated, cpd 001-199
[2] = PS (50 μM) stimulated, cpds. 667-751
[3] = PS (50 μM) stimulated, cpds. 500-599
[4] = PS (50 μM) stimulated, cpds. 608-666
[5] = PS (50 μM) stimulated, cpds. 400-499

Sequence of mouse TRPM3α2 (mTRPM3) ion channel (J9SQF3 other isoform, or with tags, fused parts or gaps): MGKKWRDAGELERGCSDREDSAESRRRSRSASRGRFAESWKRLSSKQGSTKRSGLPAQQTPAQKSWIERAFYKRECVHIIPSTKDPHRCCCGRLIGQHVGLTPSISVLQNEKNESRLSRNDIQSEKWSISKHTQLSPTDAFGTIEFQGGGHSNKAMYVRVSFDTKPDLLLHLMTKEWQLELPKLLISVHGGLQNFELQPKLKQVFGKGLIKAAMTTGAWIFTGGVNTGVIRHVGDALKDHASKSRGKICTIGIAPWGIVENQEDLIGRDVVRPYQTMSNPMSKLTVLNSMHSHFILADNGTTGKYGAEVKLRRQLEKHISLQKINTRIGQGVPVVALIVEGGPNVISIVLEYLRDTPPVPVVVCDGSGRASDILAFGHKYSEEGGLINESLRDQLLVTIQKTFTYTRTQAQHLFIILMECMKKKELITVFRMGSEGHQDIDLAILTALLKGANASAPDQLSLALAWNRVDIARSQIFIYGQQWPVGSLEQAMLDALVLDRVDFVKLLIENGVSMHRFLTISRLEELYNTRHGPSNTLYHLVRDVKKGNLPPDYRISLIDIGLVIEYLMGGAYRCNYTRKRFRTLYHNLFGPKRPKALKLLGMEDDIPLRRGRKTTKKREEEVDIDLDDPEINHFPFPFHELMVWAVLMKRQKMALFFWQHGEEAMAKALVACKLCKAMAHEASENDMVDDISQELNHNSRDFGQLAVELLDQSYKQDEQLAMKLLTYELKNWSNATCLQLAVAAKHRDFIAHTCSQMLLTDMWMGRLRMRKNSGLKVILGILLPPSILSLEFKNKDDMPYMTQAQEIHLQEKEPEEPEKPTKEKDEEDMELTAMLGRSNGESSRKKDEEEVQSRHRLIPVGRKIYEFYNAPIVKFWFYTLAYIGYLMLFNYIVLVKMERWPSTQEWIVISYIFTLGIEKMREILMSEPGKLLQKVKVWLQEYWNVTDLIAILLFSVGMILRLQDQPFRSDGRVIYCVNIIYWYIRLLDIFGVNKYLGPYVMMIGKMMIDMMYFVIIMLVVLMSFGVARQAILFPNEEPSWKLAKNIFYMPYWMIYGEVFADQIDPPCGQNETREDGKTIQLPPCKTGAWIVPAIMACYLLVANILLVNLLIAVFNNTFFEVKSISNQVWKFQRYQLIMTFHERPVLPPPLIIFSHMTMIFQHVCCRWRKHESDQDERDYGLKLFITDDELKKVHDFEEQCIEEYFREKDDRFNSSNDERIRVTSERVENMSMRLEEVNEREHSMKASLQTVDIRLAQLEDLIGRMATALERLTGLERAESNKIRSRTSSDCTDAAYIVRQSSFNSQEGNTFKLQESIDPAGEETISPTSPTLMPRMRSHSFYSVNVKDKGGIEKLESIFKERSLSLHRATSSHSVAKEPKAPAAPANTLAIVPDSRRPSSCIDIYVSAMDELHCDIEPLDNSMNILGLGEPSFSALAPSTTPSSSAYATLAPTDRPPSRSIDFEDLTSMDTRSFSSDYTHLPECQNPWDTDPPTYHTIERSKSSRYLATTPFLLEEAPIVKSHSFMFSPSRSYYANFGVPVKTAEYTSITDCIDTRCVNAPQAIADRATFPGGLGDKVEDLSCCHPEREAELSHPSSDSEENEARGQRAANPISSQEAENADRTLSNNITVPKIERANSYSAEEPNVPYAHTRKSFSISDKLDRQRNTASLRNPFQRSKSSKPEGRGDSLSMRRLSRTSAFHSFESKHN

For `Cc1ncsc1COc1ccc2oc(C)c(C(=O)NC3CCNC3=O)c2c1` (centres unmarked) [compound 042, 2-methyl-5-((4-methylthiazol-5-yl)methoxy)-N-(2-oxopyrrolidin-3-yl)benzofuran-3-carboxamide], the IC50 [1] was < 1 µM.
In the case of `Cc1oc2ccc(OCc3ccc(F)cn3)cc2c1C(=O)N[C@@H](CO)C(N)=O` [compound 741, (S)-N-(1-Amino-3-hydroxy-1-oxopropan-2-yl)-5-((5-fluoropyridin-2-yl)methoxy)-2-methylbenzofuran-3-carboxamide], the IC50 [2] is reported as < 1 µM.
For `CNC(=O)C1(NC(=O)c2c(C)oc3ccc(OCc4ccccn4)cc23)CCC1` [compound 320, 2-methyl-N-(1-(methylcarbamoyl)cyclobutyl)-5-(pyridin-2-ylmethoxy)benzofuran-3-carboxamide], the IC50 (PS 50 μM, cpds 300-399) was < 1 µM.
`Cc1oc2ccc(OCc3cccnc3OC(F)F)cc2c1C(=O)NC1CCNCC1(F)F` (single isomer, unassigned) [cpd 338-En 1] was tested, and the IC50 (PS 50 μM, cpds 300-399) was < 1 µM.
With `Cc1oc2ccc(OCc3nccs3)cc2c1C(=O)NC1(CO)COC1` [compound 527, N-(3-(hydroxymethyl)oxetan-3-yl)-2-methyl-5-(thiazol-2-ylmethoxy)benzofuran-3-carboxamide] the IC50 [3] was < 1 µM.
`Cc1oc2ccc(OCc3cn(C)nn3)cc2c1C(=O)NC1(CO)CCOCC1` [compound 604, N-(4-(hydroxymethyl)tetrahydro-2H-pyran-4-yl) -2-methyl-5-((1-methyl-1H-1,2,3-triazol-4-yl)methoxy)benzofuran-3-carboxamide] was tested, and the IC50 [4] was > 20 µM.
In the case of `Cc1cnn(C)c1COc1ccc2oc(C)c(C(=O)N[C@@H](CO)C(N)=O)c2c1` [compound 668, (S)-N-(1-Amino-3-hydroxy-1-oxopropan-2-yl)-5-((1,4-dimethyl-1H-pyrazol-5-yl)methoxy)-2-methylbenzofuran-3-carboxamide], the IC50 [2] is reported as < 1 µM.
`Cc1oc2ccc(OCc3cccnc3C(F)(F)F)cc2c1C(=O)NC1(CO)CCOCC1` [compound 072, N-(4-(hydroxymethyl)tetrahydro-2H-pyran-4-yl)-2-methyl-5-((2-(trifluoromethyl)pyridin-3-yl) -methoxy)benzofuran-3-carboxamide] was tested, and the IC50 [1] was < 1 µM.
In the case of `Cc1oc2ccc(OCc3ncccc3C3CC3)cc2c1C(=O)N[C@@H](CO)C(N)=O` [compound 704, (S)-N-(1-Amino-3-hydroxy-1-oxopropan-2-yl)-5-((3-cyclopropylpyridin-2-yl)methoxy)-2-methylbenzofuran-3-carboxamide], the IC50 [2] is reported as < 1 µM.
In the case of `COc1ncccc1COc1ccc2oc(C)c(C(=O)NC(C)(C)CO)c2c1` [compound 486, N-(1-hydroxy-2-methylpropan-2-yl)-5-((2-methoxypyridin-3-yl)methoxy)-2-methylbenzofuran-3-carboxamide], the IC50 [5] is reported as < 1 µM.
In the case of `Cc1oc2ccc(OCc3ccnn3C)cc2c1C(=O)NC1CNCCC1(F)F` (single isomer, unassigned) [cpd 636-En 1], the IC50 [4] is reported as < 1 µM.
With `Cc1ncsc1COc1ccc2oc(C)c(C(=O)NC(C)(C)CCO)c2c1` [compound 652, N-(4-hydroxy-2-methylbutan-2-yl)-2-methyl-5-((4-methylthiazol-5-yl)methoxy)benzofuran-3-carboxamide] the IC50 [4] was < 1 µM.
With `Cc1ncsc1COc1ccc2oc(C)c(C(=O)NC3CNCC(F)(F)C3)c2c1` (single isomer, unassigned) [cpd 115-En 1] the IC50 [1] was < 1 µM.
In the case of `Cc1oc2ccc(OCc3cccnc3C(F)(F)F)cc2c1C(=O)NC(C)(CO)CO` [compound 424, N-(1,3-dihydroxy-2-methylpropan-2-yl)-2-methyl-5-((2-(trifluoromethyl)pyridin-3-yl)methoxy)benzofuran-3-carboxamide], the IC50 [5] is reported as < 1 µM.
For `Cc1oc2ccc(OCc3ncn(C)n3)cc2c1C(=O)NC1CCNCC1(F)F` (single isomer, unassigned) [cpd 542-En 2], the IC50 [3] was > 20 µM.
For `Cc1oc2c(C#N)cc(OCc3cccnc3C(F)(F)F)cc2c1C(=O)NC1CCNCC1(F)F` (single isomer, unassigned) [196-En 2, 7-cyano-N-(3,3-difluoropiperidin-4-yl)-2-methyl-5-((2-(trifluoro-methyl)pyridin-3-yl)methoxy)benzofuran-3-carboxamide], the IC50 [1] was 1 to 20 µM.
In the case of `Cc1oc2cc(C#N)c(OCc3cccnc3C(F)(F)F)cc2c1C(=O)NC1CCNCC1(F)F` (single isomer, unassigned) [195-En 2, 6-cyano-N-(3,3-difluoropiperidin-4-yl)-2-methyl-5-((2-(trifluoromethyl)pyridin-3-yl)methoxy) -benzofuran-3-carboxamide], the IC50 [1] is reported as > 20 µM.
For `Cc1ncsc1COc1ccc2oc(C)c(C(=O)NC3(CO)CCOCC3)c2c1F` [compound 177, 4-fluoro-N-(4-(hydroxymethyl)tetrahydro-2H-pyran-4-yl)-2-methyl-5-((4-methylthiazol-5-yl) -methoxy)benzofuran-3-carboxamide], the IC50 [1] was < 1 µM.
With `Cc1ncsc1COc1ccc2oc(C)c(C(=O)NC3(CO)CCOCC3)c2c1C#N` [compound 193] the IC50 [1] was > 20 µM.
With `Cc1ncsc1COc1cc2c(C(=O)NC3(CO)CCOCC3)c(C)oc2cc1F` [compound 182, 6-fluoro-N-(4-(hydroxymethyl)tetrahydro-2H-pyran-4-yl)-2-methyl-5-((4-methylthiazol-5-yl)methoxy)benzofuran-3-carboxamide] the IC50 [1] was < 1 µM.
`Cc1oc2ccc(OCc3ccccn3)cc2c1C(=O)NC1COCC1(F)F` (single isomer, unassigned) [cpd 647-En 1] was tested, and the IC50 [4] was < 1 µM.
For `Cc1ncsc1COc1ccc2oc(C)c(C(=O)N[C@@H](CS(C)(=O)=O)C(N)=O)c2c1` [compound 272, (R)-N-(1-amino-3-(methylsulfonyl)-1-oxopropan-2-yl)-2-methyl-5-((4-methylthiazol-5-yl)methoxy)benzofuran-3-carboxamide], the IC50 (PS 50 μM, cpds 200-299) was < 1 µM.
In the case of `O=C(NC1CCNCC1(F)F)c1c(C(F)F)oc2ccc(OCc3cccnc3C(F)(F)F)cc12` (single isomer, unassigned) [199-En 1, 2-(difluoromethyl)-N-(3,3-difluoropiperidin-4-yl)-5-((2-(trifluoromethyl)pyridin-3-yl)methoxy) -benzofuran-3-carboxamide], the IC50 [1] is reported as < 1 µM.
In the case of `Cc1ncsc1COc1ccc2oc(C)c(C(=O)NC3(C(N)=O)COC3)c2c1F` [compound 583, N-(3-carbamoyloxetan-3-yl)-4-fluoro-2-methyl-5-((4-methylthiazol-5-yl)methoxy)benzofuran-3-carboxamide], the IC50 [3] is reported as < 1 µM.
With `Cc1oc2ccc(OCc3ccccn3)cc2c1C(=O)NC(C)(C)CO` [compound 484, N-(1-hydroxy-2-methylpropan-2-yl)-2-methyl-5-(pyridin-2-ylmethoxy)benzofuran-3-carboxamide] the IC50 [5] was < 1 µM.
For `Cc1ncc(COc2ccc3oc(C)c(C(=O)NC4(CO)COC4)c3c2)s1` [compound 525, N-(3-(hydroxymethyl)oxetan-3-yl)-2-methyl-5-((2-methylthiazol-5-yl)methoxy)benzofuran-3-carboxamide], the IC50 [3] was < 1 µM.
For `Cc1cnc(COc2ccc3oc(C)c(C(=O)NC4(CO)CCOCC4)c3c2)s1` [compound 620, N-(4-(hydroxymethyl)tetrahydro-2H-pyran-4-yl)-2-methyl-5-((5-methylthiazol-2-yl)methoxy)benzofuran-3-carboxamide], the IC50 [4] was < 1 µM.
For `Cc1oc2ccc(OCc3cccnc3)cc2c1C(=O)NC1CCNCC1(F)F` (single isomer, unassigned) [cpd 558-En 1], the IC50 [3] was < 1 µM.
In the case of `Cc1ncsc1COc1ccc2oc(C)c(C(=O)NC3(CO)CC3)c2c1` [compound 139, N-(1-(hydroxymethyl)cyclopropyl)-2-methyl-5-((4-methylthiazol-5-yl)methoxy)benzofuran-3-carboxamide], the IC50 [1] is reported as < 1 µM.
For `Cc1nc(C)c(COc2ccc3oc(C)c(C(=O)NC4CCNCC4(F)F)c3c2)s1` (single isomer, unassigned) [cpd 563-En 1], the IC50 [3] was < 1 µM.
With `Cc1oc2ccc(OCc3cccnc3C(F)(F)F)cc2c1C(=O)NC1CN(C)CC1(F)F` (single isomer, unassigned) [124-En 1, N-(4,4-difluoro-1-methylpyrrolidin-3-yl)-2-methyl-5-((2-(trifluoromethyl)pyridin-3-yl)methoxy) -benzofuran-3-carboxamide] the IC50 [1] was < 1 µM.
For `Cc1oc2ccc(OCc3nccs3)cc2c1C(=O)N[C@@H](CO)C(N)=O` [compound 695, (S)-N-(1-Amino-3-hydroxy-1-oxopropan-2-yl)-2-methyl-5-(thiazol-2-ylmethoxy)benzofuran-3-carboxamide], the IC50 [2] was < 1 µM.
With `CCOc1ncccc1COc1ccc2oc(C)c(C(=O)NC3(CO)CCOCC3)c2c1` [compound 206, 5-((2-ethoxypyridin-3-yl)methoxy)-N-(4-(hydroxymethyl)tetrahydro-2H-pyran-4-yl)-2-methyl-benzofuran-3-carboxamide] the IC50 (PS 50 μM, cpds 200-299) was < 1 µM.
With `Cc1oc2ccc(OCc3cccnc3C(F)(F)F)cc2c1C(=O)NC1(C(N)=O)CC1` [compound 475, N-(1-carbamoylcyclopropyl)-2-methyl-5-((2-(trifluoromethyl)pyridin-3-yl)methoxy)benzofuran-3-carboxamide] the IC50 [5] was < 1 µM.
For `Cc1oc2ccc(OCc3nccn3C)cc2c1C(=O)NC1CNCC1(F)F` (single isomer, unassigned) [cpd 638-En 1], the IC50 [4] was < 1 µM.
With `Cc1ncsc1COc1ccc2oc(C)c(C(=O)N[C@H](CO)CS(C)(=O)=O)c2c1` [compound 275] the IC50 (PS 50 μM, cpds 200-299) was < 1 µM.
`Cc1oc2ccc(OCc3cccnc3O)cc2c1C(=O)NC1(CO)CCOC1` (single isomer, unassigned) [cpd 535-En 1] was tested, and the IC50 [3] was < 1 µM.
`Cc1ncc(COc2ccc3oc(C)c(C(=O)NCC4(F)CCOCC4)c3c2)s1` [compound 393, N-((4-fluorotetrahydro-2H-pyran-4-yl)methyl)-2-methyl-5-((2-methylthiazol-5-yl)methoxy)benzofuran-3-carboxamide] was tested, and the IC50 (PS 50 μM, cpds 300-399) was < 1 µM.
